Legend:
Tyk2 = Tyk2 (Homo sapiens (Human), UniProt P29597); assay: Biochemical JAK kinase assay (LanthaScreen), Tyk2
Method: (§1) Assay 1: Biochemical JAK Kinase Assays
(§2) A panel of four LanthaScreen JAK biochemical assays (JAK1, 2, 3 and Tyk2) were carried in a common kinase reaction buffer (50 mM HEPES, pH 7.5, 0.01% Brij-35, 10 mM MgCl2, and 1 mM EGTA). Recombinant GST-tagged JAK enzymes and a GFP-tagged STAT1 peptide substrate were obtained from Life Technologies.
(§3) Serially diluted compounds were pre-incubated with each of the four JAK enzymes and the substrate in white 384-well microplates (Corning) at ambient temperature for 1 h. ATP was subsequently added to initiate the kinase reactions in 10 μL total volume, with 1% DMSO. […] Kinase reactions were allowed to proceed for 1 hour at ambient temperature before a 10 μL preparation of EDTA (10 mM final concentration) and Tb-anti-pSTAT1 (pTyr701) antibody (Life Technologies, 2 nM final concentration) in TR-FRET dilution buffer (Life Technologies) was added. The plates were allowed to incubate at ambient temperature for 1 h before being read on the EnVision reader (Perkin Elmer). Emission ratio signals (520 nm/495 nm) were recorded and utilized to calculate the percent inhibition values based on DMSO and background controls.
(§4) For dose-response analysis, percent inhibition data were plotted vs. compound concentrations, and IC50 values were determined from a 4-parameter robust fit model with the Prism software (GraphPad Software). Results were expressed as pIC50 (negative logarithm of IC50) and subsequently converted to pKi (negative logarithm of dissociation constant, Ki) using the Cheng-Prusoff equation.

Lung S9 metabolism = assay type: in vitro ADME, human; conditions: for Compound Remaining at 60 min (%) / microsomal CLint at 1 µM: human lung S9, 1 μM compound, 1 mg/mL S9 protein, NADPH and PAPS; for microsomal CLint at 1 µM: lung S9 fraction, pH 7.4, read-out: Clearance; for Sulfate Appearance: qualitative, O-sulfate metabolite peak in human lung S9
Method: Assay 5: Lung S9 Metabolism […] Lung S9 fractions from human (lot 1410245) were purchased from XenoTech LLC (Lenexa, Kans.). NADPH (Sigma Aldrich, N1630) and 3-phosphoadenosine 5-phosphosulfate (PAPS) (Sigma Aldrich, A1651) were purchased from Sigma Aldrich (St. Louis, Mo.). Acetonitrile and water were obtained from VWR (Radnor, Pa.) and were of HPLC grade or better. Raloxifene and formic acid was purchased from Sigma Aldrich (St. Louis, Mo.). Lung S9 incubations were performed in a water bath at 37° C. in a 96-well polypropylene plate. […] All samples were centrifuged at 2250 g for 10 minutes at 5° C. Supernatant (50 μL) was taken from the centrifuged samples and diluted into 100 μL HPLC water containing internal standard. […] Mobile Phase A consisted of Water+0.2% formic acid and Mobile Phase B consisted of acetonitrile+0.2% formic acid. Peak integration was accomplished using Gubbs GMSU software (Gubbs Inc., Alpharetta, Ga.). For each sample, peak area ratios were calculated by dividing the analyte peak area by the internal standard peak area. […] Determination of sulfate metabolite formation was made qualitatively by observation of early-eluting peak in the parent ion channel which, based on historical internal data, corresponded to the O-sulfate metabolite of each parent compound.

JAK2 = JAK2 (Homo sapiens (Human), UniProt O60674); assay: Biochemical JAK kinase assay (LanthaScreen), JAK2
JAK2, sequence (O60674 whole entry): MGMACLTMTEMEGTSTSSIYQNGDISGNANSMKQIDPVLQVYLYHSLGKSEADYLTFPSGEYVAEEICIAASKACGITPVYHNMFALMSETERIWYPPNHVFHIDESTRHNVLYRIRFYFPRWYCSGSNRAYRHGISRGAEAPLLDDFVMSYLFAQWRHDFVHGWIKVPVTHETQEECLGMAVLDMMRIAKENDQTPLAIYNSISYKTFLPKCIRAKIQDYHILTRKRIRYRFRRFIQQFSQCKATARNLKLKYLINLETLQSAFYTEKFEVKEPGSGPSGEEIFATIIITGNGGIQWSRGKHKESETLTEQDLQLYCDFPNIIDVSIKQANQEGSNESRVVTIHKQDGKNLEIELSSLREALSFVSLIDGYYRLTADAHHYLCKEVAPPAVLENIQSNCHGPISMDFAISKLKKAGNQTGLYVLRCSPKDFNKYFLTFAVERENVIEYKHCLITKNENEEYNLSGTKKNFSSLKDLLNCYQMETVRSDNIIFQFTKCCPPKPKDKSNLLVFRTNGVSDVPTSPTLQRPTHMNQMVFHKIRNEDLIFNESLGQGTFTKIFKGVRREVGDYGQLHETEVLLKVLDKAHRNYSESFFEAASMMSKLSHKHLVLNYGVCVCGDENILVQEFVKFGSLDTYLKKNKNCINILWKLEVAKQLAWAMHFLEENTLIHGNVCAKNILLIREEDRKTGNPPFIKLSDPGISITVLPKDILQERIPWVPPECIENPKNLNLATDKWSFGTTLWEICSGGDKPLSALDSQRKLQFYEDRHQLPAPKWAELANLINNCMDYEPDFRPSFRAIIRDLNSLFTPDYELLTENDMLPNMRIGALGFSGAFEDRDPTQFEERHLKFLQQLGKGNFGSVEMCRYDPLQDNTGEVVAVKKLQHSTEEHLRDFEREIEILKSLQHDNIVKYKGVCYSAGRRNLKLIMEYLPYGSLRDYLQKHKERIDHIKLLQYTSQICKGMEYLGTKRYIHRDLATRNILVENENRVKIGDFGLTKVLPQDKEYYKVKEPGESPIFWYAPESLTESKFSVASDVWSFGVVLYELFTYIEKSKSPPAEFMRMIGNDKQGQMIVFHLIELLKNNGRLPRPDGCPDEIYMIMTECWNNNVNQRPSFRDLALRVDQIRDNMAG
Method: as §1, §2, §3, §4

[1] = test system: TSLP-evoked TARC release in human peripheral blood mononuclear cells; assay: Inhibition of TSLP-evoked TARC release in human peripheral blood mononuclear cells; assay type: cell-based; conditions: PBMC from 3 to 5 donors, TSLP 10 ng/mL, 48 hours, TARC ELISA, read-out: pIC50 ± st. dev., inhibition of TSLP-evoked TARC release (converted)
Text: Assay 4: Inhibition of TSLP-Evoked TARC Release in Human Peripheral Blood Mononuclear Cells
Thymic stromal lymphopoietin (TSLP) and thymus and activation-regulated chemokine (TARC) are overexpressed in asthmatic airways, and correlate with disease severity. In the lungs, TSLP may be released by bronchial epithelial cells in response to allergens and viral infections. TSLP signals through an IL-7Rα/TSLPR heterodimer found in a broad range of tissues and cell types, including epithelial cells, endothelial cells, neutrophils, macrophages, and mast cells. The binding of TSLP to its receptor induces a conformational change that activates JAK1 and JAK2 to phosphorylate various transcription factors, including STAT3 and STAT5. In immune cells, this triggers a cascade of intracellular events that result in cell proliferation, anti-apoptosis, dendritic cell migration, and production of Th2 cytokines and chemokines. In peripheral blood mononuclear cells (PBMC), TSLP has a proinflammatory effect by activating myeloid dendritic cells to attract and stimulate T cells, a process mediated by the chemoattractant TARC.
The potencies of the test compounds were measured for inhibition of TARC release.
PBMC aliquots (previously isolated from whole blood and frozen in aliquots at −80° C.) from 3 to 5 donors were thawed at 37° C. and added dropwise to 40 mL pre-warmed, sterile-filtered, complete RPMI media in 50 mL Falcon tubes. Cells were pelleted and resuspended in complete media at 2.24×10^6 cells/mL. Cells were seeded at […] (190,000 cells) per well in a tissue culture treated 96-well flat bottom microplate. Cells were allowed to rest for 1 hour at 37° C. with 5% CO2.
Compounds were received as 10 mM stock solutions in DMSO. 3.7-fold serial dilutions were performed to generate 9 concentrations of test compound in DMSO at 300× the final assay test concentration. […] After the 1 hour rest period, 95 µL of 2× compound was added to each well of PBMC, for a final assay concentration range of 33.33 μM to […]. 95 μL of 0.2% DMSO in complete media was added to the untreated control wells. Cells were pre-treated with compound for 1 hour at 37° C. with 5% CO2 prior to stimulation.
Recombinant human TSLP protein was reconstituted at 10 μg/mL in sterile DPBS with 0.1% BSA and stored in aliquots at −20° C. Immediately prior to use, an aliquot was thawed and prepared at 20× the final assay concentration in complete media. 10 μL of 20×TSLP was added to each well of PBMC, for a final assay concentration of 10 ng/mL. 10 μL of complete media was added to the unstimulated control wells. Cells were stimulated in the presence of compound for 48 hours at 37° C. with 5% CO2.
Following stimulation, the cell culture supernatants were harvested and TARC levels were detected by enzyme-linked immunosorbent assay (ELISA), using Human CCL17/TARC Quantikine ELISA Kit (R&D Systems # DDN00) according to the manufacturer's instructions.
For dose response analysis, the log [test compound (M)] was plotted versus the percent response values for each donor, and IC50 values were determined using a nonlinear regression analysis with GraphPad Prism Software using the 4-parameter sigmoidal dose-response algorithm with variable slope. Data are expressed as mean pIC50 (negative decadic logarithm IC50) values calculated from pIC50 values of individual donors and rounded to one decimal place.

[2] = test system: IL-2 stimulated STAT5 phosphorylation in Tall-1 human T cell line; assay: Inhibition of IL-2 stimulated pSTAT5 in Tall-1 T cells; assay type: cell-based; conditions: TALL-1, 0.5 h, IL-2 300 ng/mL, 30 min, pSTAT5 AlphaLisa, read-out: Tall-1 pIC50 (converted)
Method: Assay 2: Inhibition of IL-2 Stimulated pSTAT5 in Tall-1 T Cells
The potency of test compounds for inhibition of interleukin-2 (IL-2) stimulated STAT5 phosphorylation was measured in the Tall-1 human T cell line (DSMZ) using AlphaLisa.
Phosphorylated STAT5 was measured via the AlphaLISA SureFire Ultra pSTAT5 (Tyr694/699) kit (PerkinElmer).
Compounds were serially diluted in DMSO and dispensed acoustically to empty wells. Assay media (phenol red-free DMEM (Life Technologies) supplemented with 10% FBS (ATCC)) was dispensed (4 μL/well) and plates shaken at 900 rpm for 10 mins. Cells were seeded at 45,000 cells/well in assay media (4 μL/well), and incubated at 37° C., 5% CO2 for 1 hour, followed by the addition of IL-2 (R&D Systems; final concentration 300 ng/mL) in pre-warmed assay media (4 μL) for 30 minutes. […] The lysate was shaken at 900 rpm for 10 minutes at room temperature (RT). Phosphorylated STAT5 was measured via the pSTAT5 AlphaLisa kit (PerkinElmer). Freshly prepared acceptor bead mixture was dispensed onto lysate (5 μL) under green filtered <100 lux light. Plates were shaken at 900 rpm for 2 mins, briefly spun down, and incubated for 2 hrs at RT in the dark. Donor beads were dispensed (5 μL) under green filtered <100 lux light. Plates were shaken at 900 rpm for 2 minutes, briefly spun down, and incubated overnight at RT in the dark. Luminescence was measured with excitation at 689 nm and emission at 570 nm using an EnVision plate reader (PerkinElmer) under green filtered <100 lux light.
To determine the inhibitory potency of test compounds in response to IL-2, the average emission intensity of beads bound to pSTAT5 was measured in a human T cell line. IC50 values were determined from analysis of the inhibition curves of signal intensity versus compound concentration. Data are expressed as pIC50 (negative decadic logarithm IC50) values (mean±standard deviation).

JAK1 = JAK1 (Homo sapiens (Human), UniProt P23458); assay: Co-crystal structure with JAK1; conditions: resolution of 2.28 Å
JAK1, sequence (P23458 whole entry): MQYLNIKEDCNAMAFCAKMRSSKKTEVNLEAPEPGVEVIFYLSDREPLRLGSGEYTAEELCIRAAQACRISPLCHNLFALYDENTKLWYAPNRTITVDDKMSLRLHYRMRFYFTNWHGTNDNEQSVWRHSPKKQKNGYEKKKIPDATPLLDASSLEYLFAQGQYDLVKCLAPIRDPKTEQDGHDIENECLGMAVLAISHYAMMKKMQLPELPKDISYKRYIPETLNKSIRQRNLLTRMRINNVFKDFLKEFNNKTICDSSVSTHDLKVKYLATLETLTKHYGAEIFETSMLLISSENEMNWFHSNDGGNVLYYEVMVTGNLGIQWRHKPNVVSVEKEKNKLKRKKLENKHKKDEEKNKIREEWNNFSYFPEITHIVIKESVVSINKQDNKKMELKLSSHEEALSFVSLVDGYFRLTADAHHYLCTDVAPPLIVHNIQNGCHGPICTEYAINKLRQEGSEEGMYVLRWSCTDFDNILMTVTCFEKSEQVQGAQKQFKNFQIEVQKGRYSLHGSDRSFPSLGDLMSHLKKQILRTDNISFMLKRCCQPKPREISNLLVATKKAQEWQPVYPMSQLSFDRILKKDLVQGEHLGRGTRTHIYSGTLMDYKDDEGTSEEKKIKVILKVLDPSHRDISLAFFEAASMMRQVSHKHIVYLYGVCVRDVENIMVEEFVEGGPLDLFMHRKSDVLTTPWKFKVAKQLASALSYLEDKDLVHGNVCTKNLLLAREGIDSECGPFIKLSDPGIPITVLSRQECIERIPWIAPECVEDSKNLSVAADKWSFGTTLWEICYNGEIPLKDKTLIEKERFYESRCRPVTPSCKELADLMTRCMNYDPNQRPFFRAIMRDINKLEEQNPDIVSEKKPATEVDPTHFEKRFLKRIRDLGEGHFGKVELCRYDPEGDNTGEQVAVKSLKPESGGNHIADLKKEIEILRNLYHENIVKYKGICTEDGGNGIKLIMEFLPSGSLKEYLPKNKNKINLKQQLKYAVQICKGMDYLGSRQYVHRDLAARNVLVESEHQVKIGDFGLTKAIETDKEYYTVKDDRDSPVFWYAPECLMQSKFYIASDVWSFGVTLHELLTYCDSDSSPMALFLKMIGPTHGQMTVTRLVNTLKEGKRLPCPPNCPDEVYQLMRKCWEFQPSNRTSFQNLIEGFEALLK
Text: A co-crystal structure was obtained of compound D-1 bound to human JAK1 at a resolution of 2.28 Å. […] Seven specific hydrogen bonding interactions were identified based upon a distance of 3.5 Å or less between donor and acceptor atoms. Of particular note, a hydrogen bonding interaction was identified between the carbonyl of the exocyclic amide of compound D-1 and the sidechain of Arg879 of JAK1. A similar interaction can be expected for the compounds of the invention.

Tyk2, sequence (P29597 whole entry): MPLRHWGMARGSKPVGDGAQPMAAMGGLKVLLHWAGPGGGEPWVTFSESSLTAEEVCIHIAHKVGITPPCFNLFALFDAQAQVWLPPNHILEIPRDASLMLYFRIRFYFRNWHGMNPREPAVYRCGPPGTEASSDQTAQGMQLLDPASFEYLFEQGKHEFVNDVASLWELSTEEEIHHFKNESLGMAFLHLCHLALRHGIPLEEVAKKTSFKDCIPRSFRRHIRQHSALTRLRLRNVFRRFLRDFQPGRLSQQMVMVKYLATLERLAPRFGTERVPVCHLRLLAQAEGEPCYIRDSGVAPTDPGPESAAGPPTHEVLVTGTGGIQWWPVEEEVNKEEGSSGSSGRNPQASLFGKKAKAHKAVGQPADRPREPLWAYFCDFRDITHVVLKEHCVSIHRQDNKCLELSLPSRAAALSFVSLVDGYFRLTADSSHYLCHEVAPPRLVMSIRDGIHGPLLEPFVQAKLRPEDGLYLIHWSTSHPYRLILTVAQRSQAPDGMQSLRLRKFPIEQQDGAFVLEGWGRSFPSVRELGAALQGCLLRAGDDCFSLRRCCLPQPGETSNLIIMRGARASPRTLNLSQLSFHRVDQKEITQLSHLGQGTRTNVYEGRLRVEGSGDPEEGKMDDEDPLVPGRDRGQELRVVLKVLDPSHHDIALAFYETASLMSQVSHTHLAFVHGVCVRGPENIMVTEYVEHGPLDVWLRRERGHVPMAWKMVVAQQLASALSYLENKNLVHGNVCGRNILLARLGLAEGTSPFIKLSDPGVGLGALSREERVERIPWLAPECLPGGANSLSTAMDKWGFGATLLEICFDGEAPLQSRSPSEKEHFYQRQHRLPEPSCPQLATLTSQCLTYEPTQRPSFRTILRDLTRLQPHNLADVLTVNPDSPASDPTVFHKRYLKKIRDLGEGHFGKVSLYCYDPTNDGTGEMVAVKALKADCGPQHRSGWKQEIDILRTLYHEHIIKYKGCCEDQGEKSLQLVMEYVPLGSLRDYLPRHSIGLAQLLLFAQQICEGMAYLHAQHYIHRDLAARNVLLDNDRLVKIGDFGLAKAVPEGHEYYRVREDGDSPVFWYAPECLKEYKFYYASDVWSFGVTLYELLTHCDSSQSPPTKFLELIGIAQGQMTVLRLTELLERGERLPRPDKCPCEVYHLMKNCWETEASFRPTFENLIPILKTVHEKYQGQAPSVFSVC

Row | IC50 [1] [nM] | IC50 [2] [nM] | binding site in co-crystal structure (JAK1) | Compound | Tyk2 pKi (Tyk2) | Compound Remaining at 60 min (%) (Lung S9 metabolism) | microsomal CLint at 1 µM (Lung S9 metabolism) [µL/min/mg] | Sulfate Appearance (Lung S9 metabolism) | JAK2 pKi (JAK2)
1 | – | – | – | CCc1cc(O)ccc1-c1ccc2c(-c3nc4c([nH]3)CN(C)[C@H](C(=O)N3CCN(C)C[C@@H]3C)C4)n[nH]c2c1 [Compound 3, ((S)-2,4-dimethylpiperazin-1-yl)((S)-2-(6-(2-ethyl-4-hydroxyphenyl)-1H-indazol-3-yl)-5-methyl-4,5,6,7-tetrahydro-3H-imidazo[4,5-c]pyridin-6-yl)methanone] | 9.3 | 86 | 2.6 | Yes | 10.4
2 | 158 | 2.51 | – | CCc1cc(O)c(F)cc1-c1ccc2c(-c3nc4c([nH]3)CN(C(C)C)[C@H](C(=O)N3CC[C@H](N(C)C)C3)C4)n[nH]c2c1 [Compound C-6, reference compound] | – | 5 | 51.4 | Yes | –
3 | – | – | bind in the ATP binding site | CCc1cc(O)c(F)cc1-c1ccc2c(-c3nc4c([nH]3)CN(C(C)C)[C@H](C(=O)N3CC(N(C)C)C3)C4)n[nH]c2c1 [Compound D-1, (S)-(3-(dimethylamino)azetidin-1-yl)(2-(6-(2-ethyl-5-fluoro-4-hydroxyphenyl)-1H-indazol-3-yl)-5-isopropyl-4,5,6,7-tetrahydro-3H-imidazo[4,5-c]pyridin-6-yl)methanone] | – | – | – | – | –

— patent US10836763B2, “5 to 7 membered heterocyclic amides as JAK inhibitors” (priority 2018, dated 2020)
